# Reference: patent US7211597B2, “Substituted pyrazolyl compounds for the treatment of inflammation” (priority 2001, dated 2007)
# Target: T1, IKK2 (IKKβ) (Homo sapiens, UniProt O14920)
# T1 construct: made in house; host or cells: baculovirus-infected insect cells (SF9)
# T1 sequence (O14920 1-756): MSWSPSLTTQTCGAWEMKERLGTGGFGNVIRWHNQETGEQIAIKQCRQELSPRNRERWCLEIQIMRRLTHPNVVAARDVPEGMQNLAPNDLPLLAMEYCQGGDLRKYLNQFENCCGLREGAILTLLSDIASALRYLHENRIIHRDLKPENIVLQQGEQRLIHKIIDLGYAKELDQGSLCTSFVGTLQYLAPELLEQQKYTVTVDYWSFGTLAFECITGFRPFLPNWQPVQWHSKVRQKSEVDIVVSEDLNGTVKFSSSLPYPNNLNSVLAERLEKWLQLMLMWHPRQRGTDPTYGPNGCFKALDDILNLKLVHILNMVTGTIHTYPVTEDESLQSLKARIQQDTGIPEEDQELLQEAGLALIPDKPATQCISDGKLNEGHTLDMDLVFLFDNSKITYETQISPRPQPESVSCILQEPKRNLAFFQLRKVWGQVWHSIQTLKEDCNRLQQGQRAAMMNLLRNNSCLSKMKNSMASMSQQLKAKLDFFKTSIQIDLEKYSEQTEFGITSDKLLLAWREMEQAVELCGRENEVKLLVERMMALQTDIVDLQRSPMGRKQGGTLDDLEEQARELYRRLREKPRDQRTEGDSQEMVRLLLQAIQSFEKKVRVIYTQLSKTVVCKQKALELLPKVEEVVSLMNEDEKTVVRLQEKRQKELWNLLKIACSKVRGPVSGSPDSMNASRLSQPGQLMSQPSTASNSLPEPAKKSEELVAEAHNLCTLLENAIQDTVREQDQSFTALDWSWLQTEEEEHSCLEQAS
# Test: IKK2 (IKKβ) resin enzyme assay
# Assay type: biochemical
# Conditions: Table 2; read-out: IKK2 Resin Avg. IC50
# From the text: cDNAs of human IKK1 and IKK2 were amplified by reverse transcriptase-polymerase chain reaction from human placental RNA (Clonetech). hIKK1 was subcloned into pFastBac HTa (Life Technologies) and expressed as N-terminal His6-tagged fusion protein. The hIKK2 cDNA was amplified using a reverse oligonucleotide primer which incorporated the peptide sequence for a FLAG-epitope tag at the C-terminus of the IKK2 coding region (DYKDDDDKD). The hIKK2:FLAG cDNA was subcloned into the baculovirus vector pFastBac. The rhIKK2 ([…]) mutant was constructed in the same vector used for wild type rhIKK2 using a QuikChange™ mutagenesis kit (Stratagene). Viral stocks of each construct were used to infect insect cells grown in 40L suspension culture. […] Cell lysates were stored at −80° C. until purification of the recombinant proteins was undertaken as described below.
# Isolation of rhIKK2 Homodimer
# A 10 liter culture of baculovirus-expressing IKK2 tagged with FLAG peptide was centrifuged and the cell pellet (MOI=0.1 and I=72 hrs) was re-suspended in buffer A. These cells were microfluidized, and centrifuged at 100,000×g for 45 min. Supernatant was passed over a G-25 column equilibrated with Buffer A. Protein peak was collected and incubated with anti-FLAG affinity resin on a rotator overnight in buffer B. The resin was washed in batch with 10-15 bed volumes of buffer C. Washed resin was poured into a column and rhIKK2 homodimer was eluted using 5 bed volumes of buffer B containing FLAG peptide. 5 mM DTT, 0.1% NP-40 and BSA (concentrated to 0.1% in final amount) was added to the eluted enzyme before concentrating in using an Amicon membrane with a molecular weight cut-off of 30 kDa. Enzyme was aliquoted and stored at −80° C.
# IKKβ kinase activity was measured using a biotinylated IκBα peptide (Gly-Leu-Lys-Lys-Glu-Arg-Leu-Leu-Asp-Asp-Arg-His-Asp-Ser32-Gly-Leu-Asp-Ser36-Met-Lys-Asp-Glu-Glu) (American Peptide Co.). […] contained 5 μM biotinylated IκBα peptide, 0.1 μCi/reaction [γ-^33P] ATP (Amersham) (about 1×10^5 cpm), 1 μM ATP (Sigma), 1 mM DTT (Sigma), 2 mM MgCl2 (Sigma), 2 mM MnCl2 (Sigma), 10 mM NaF (Sigma), 25 mM Hepes (Sigma) buffer, pH 7.6 and 20 μl enzyme solution and […] inhibitor in a final volume of 50 μl. After incubation at 25° C. for 30 min, 150 μl resin (Dowex anion-exchange resin AG1X8 200-400 mesh) in 900 mM formate, pH 3.0 was added to each well to stop the reaction. Resin was allowed to settle for one hour and 50 ul of supernatant was removed to a Micolite-2 flat bottom plate (Dynex). 150 μl of scintillation fluid (Microscint 40) (Packard) was added to each well. Incorporation of [γ-^33P] ATP was measured using a Top-Count NXT (Packard).
row,SMILES,IC50
1,"CC(=O)N1Cc2c(C(N)=O)nn(-c3ccc4c(c3)OCO4)c2-c2cc(N)ccc21 [Example 17, 5-acetyl-8-amino-1-(1,3-benzodioxol-5-yl)-4,5-dihydro-1H-pyrazolo[4,3-c]quinoline-3-carboxamide acetate]",≤ 1 µM
2,"CC(=O)N1Cc2c(C(N)=O)nn(-c3ccc4c(c3)OCO4)c2-c2cc(NC(=O)c3ccccc3Cl)ccc21 [Example 18, 5-acetyl-1-(1,3-benzodioxol-5-yl)-8-[(2-chlorobenzoyl)amino]-4,5-dihydro-1H-pyrazolo[4,3-c]quinoline-3-carboxamide]",≤ 1 µM
3,"CC(=O)N1Cc2c(C(N)=O)nn(-c3ccc4c(c3)OCO4)c2-c2cc(NC(=O)c3ccncc3Cl)ccc21 [Example 22, 5-acetyl-1-(1,3-benzodioxol-5-yl)-8-[(3-chloroisonicotinoyl)amino]-4,5-dihydro-1H-pyrazolo[4,3-c]quinoline-3-carboxamide]",< 1 µM
4,"CC(=O)N1Cc2c(C(N)=O)nn(-c3ccc4c(c3)OCO4)c2-c2cc(NS(C)(=O)=O)ccc21 [Example 23, 5-acetyl-1-(1,3-benzodioxol-5-yl)-8-[(methylsulfonyl)amino]-4,5-dihydro-1H-pyrazolo[4,3-c]quinoline-3-carboxamide]",< 1 µM
5,"CC(=O)N1Cc2c(C(N)=O)nn(-c3ccc(F)cc3)c2-c2cc(NS(C)(=O)=O)ccc21 [Example 25, 5-acetyl-1-(4-fluorophenyl)-8-[(methylsulfonyl)amino]-4,5-dihydro-1H-pyrazolo[4,3-c]quinoline-3-carboxamide]",< 1 µM

# Same assay, conditions: Table 3; read-out: IKK2 Resin IC50
row,SMILES,IC50
1,"NC(=O)c1nn(-c2ccc3c(c2)OCO3)c2c1COc1ccc(NC(=O)c3cc4c(cc3Cl)OCO4)cc1-2 [Example 31, 1-(1,3-benzodioxol-5-yl)-8-{[(6-chloro-1,3-benzodioxol-5-yl)carbonyl]amino}-1,4-dihydrochromeno[4,3-c]pyrazole-3-carboxamide]",≤ 1 µM
2,"NC(=O)c1nn(-c2ccc3c(c2)OCO3)c2c1COc1ccc(NC(=O)c3ccncc3Cl)cc1-2 [Example 32, 1-(1,3-benzodioxol-5-yl)-8-[(3-chloroisonicotinoyl)amino]-1,4-dihydrochromeno[4,3-c]pyrazole-3-carboxamide]",≤ 1 µM
3,"NC(=O)c1nn(-c2ccc3c(c2)OCO3)c2c1COc1ccc(NC(=O)c3cc(N)ccc3Cl)cc1-2 [Example 33, 8-[(5-amino-2-chlorobenzoyl)amino]-1-(1,3-benzodioxol-5-yl)-1,4-dihydrochromeno[4,3-c]pyrazole-3-carboxamide]",≤ 1 µM
4,"NC(=O)c1nn(-c2ccc3c(c2)OCO3)c2c1COc1ccc(NC(=O)c3ccccc3Cl)cc1-2 [Example 34, 1-(1,3-benzodioxol-5-yl)-8-[(2-chlorobenzoyl)amino]-1,4-dihydrochromeno[4,3-c]pyrazole-3-carboxamide]",≤ 1 µM
5,"NC(=O)c1nn(-c2ccc3c(c2)OCO3)c2c1COc1ccc(NC(=O)c3cccc(Cl)c3Cl)cc1-2 [Example 45, 1-(1,3-benzodioxol-5-yl)-8-[(2,3-dichlorobenzoyl)amino]-1,4-dihydrochromenol[4,3-c]pyrazole-3-carboxamide]",≥ 100 µM

# Same assay, conditions: Table 4; read-out: IKK2 Resin IC50
row,SMILES,IC50
1,"NC(=O)c1nn(-c2ccc(F)cc2)c2c1COc1ccc(NC(=O)c3cccnc3Cl)cc1-2 [Example 47, 8-{[(2-chloropyridin-3-yl)carbonyl]amino}-1-(4-fluorophenyl)-1,4-dihydrochromenol[4,3-c]pyrazole-3-carboxamide]",≤ 1 µM
2,"NC(=O)c1nn(-c2cccc(F)c2)c2c1COc1ccc(NC(=O)c3cccnc3Cl)cc1-2 [Example 48, 8-{[(2-chloropyridin-3-yl)carbonyl]amino}-1-(3-fluorophenyl)-1,4-dihydrochromenol[4,3-c]pyrazole-3-carboxamide]",≤ 1 µM
3,"NC(=O)c1nn(-c2ccc(F)cc2)c2c1COc1ccc(NC(=O)c3ccncc3Cl)cc1-2 [Example 53, 8-[(3-chloroisonicotinoyl)amino]-1-(4-fluorophenyl)-1,4-dihydrochromeno[4,3-c]pyrazole-3-carboxamide]",< 1 µM

# Same assay, conditions: Table 5; read-out: IKK2 Resin IC50
row,SMILES,IC50
1,"CS(=O)(=O)c1ccc(-n2nc(C(N)=O)c3c2-c2cc(NC(=O)c4ccccc4Cl)ccc2OC3)cc1 [Example 54, 8-[(2-chlorobenzoyl)amino]-1-[4-(methylsulfonyl)phenyl]-1,4-dihydrochromeno[4,3-c]pyrazole-3-carboxamide]",≤ 1 µM
2,"C[S+]([O-])c1ccc(-n2nc(C(N)=O)c3c2-c2cc(NC(=O)c4ccccc4Cl)ccc2OC3)cc1 (stereo not shown) [Example 55, 8-[(2-chlorobenzoyl)amino]-1-[4-(methylsulfinyl)phenyl]-1,4-dihydrochromeno[4,3-c]pyrazole-3-carboxamide]",≥ 1 µM
3,CSc1ccc(-n2nc(C(N)=O)c3c2-c2cc(NC(=O)c4ccccc4Cl)ccc2OC3)cc1 [Example 57],≥ 10 µM
